# Measured values taken from PMC3214022, “Plasmodium falciparum Parasites Are Killed by a Transition State Analogue of Purine Nucleoside Phosphorylase in a Primate Animal Model” (PLoS ONE, 2011).
# Assay: Weights, CBC, blood chemistry and signs of toxicity, Table S1 sheet PD-2 (infected Aotus, twice a day for seven days)
# Type: in vivo, Aotus lemurinus lemurinus
# Conditions: oral 10 mg/kg twice a day/7 days, 26047 Female (ITM1)
# Protocol: Laboratory bred Aotus lemurinus lemurinus monkeys (0.75–0.89 kg) were maintained as described. […] Blood samples were collected before the treatment started (t = 0), 0.05 h, 0.5 h, 1 h, 2 h, 6 h, 24 h, 48 h, and 6, 12 and 18 days after the first dose from each monkey and processed as described below. Pharmacokinetic parameters were calculated using PKSolver. For efficacy studies, Aotus monkeys were inoculated intravenously with 5×10^6 parasites of the FVO strain of P. falciparum in an approved treatment protocol. […] Parasitaemia was determined by Giemsa-stained thick blood smears prepared daily from the marginal ear vein [41]. Blood samples were collected from each monkey and transferred to tubes containing lithium heparin, centrifuged and both plasma and blood cells were frozen at −80 °C until analysis. Animals received a physical examination and blood chemistry profiles were monitored after treatment as described previously. Any monkey not responding appropriately to treatment was cured of its infection with mefloquine (40 mg kg^−1). […] The day of clearance is defined as the first of three consecutive days in which the thick blood films are parasite negative. The day of recrudescence is the first of three consecutive days of positive thick blood films after a period of clearance. Suppression is defined as a transient decrease in the parasite count post-treatment without clearance.
structure (smiles),measurement,setting,value
"Nc1nc2c(CN3CC(O)C(CO)C3)c[nH]c2c(=O)[nH]1 (centres unmarked) [BCX4945, 4′-deaza-1′-aza-2′-deoxy-1′-(9-methylene)-Immucillin-G]",Lymphocytes (%),day 12,68.4%
same,Lymphocytes (x 103/ul),day 12,11.5 x 103/ul
same,Mean Corpuscular Hemoglobin,day 12,28.3 pg
same,Mean Corpuscular Volume,day 12,79.5 fL
same,Mean Hemoglobin Content,day 12,35.5 g/dL
same,Mean Platelet Volume,day 12,9.9 fL
same,Monocytes (%),day 12,10.3%
same,Monocytes (x 103/ul),day 12,1.7 x 103/ul
same,Platelets,day 12,338000 µL⁻¹
same,Red Cell Distribution Width,day 12,13.6%
same,Reticulocytes,day 12,2.2%
same,WEIGHT,day 12,845 g
same,Blood Urea Nitrogen,day 15,11.4 mg/dL
same,Creatine,day 15,0.638 mg/dL
same,Erythrocytes,day 15,4.51e+06 µL⁻¹
same,Glutamate Pyruvate Transaminase,day 15,21.4 U/L
same,Granulocytes (%),day 15,7.5%
same,Granulocytes (x 103/ul),day 15,1 x 103/ul
same,Hematocrit,day 15,36.3%
same,Hemoglobin,day 15,12.9 g/dL
same,Leucocytes,day 15,13100 µL⁻¹
same,Lymphocytes (%),day 15,81.3%
same,Lymphocytes (x 103/ul),day 15,10.7 x 103/ul
same,Mean Corpuscular Hemoglobin,day 15,28.7 pg
same,Mean Corpuscular Volume,day 15,80.5 fL
same,Mean Hemoglobin Content,day 15,35.6 g/dL
same,Mean Platelet Volume,day 15,10.4 fL
same,Monocytes (x 103/ul),day 15,1.5 x 103/ul
same,Platelets,day 15,164000 µL⁻¹
same,Red Cell Distribution Width,day 15,17.5%
same,Reticulocytes,day 15,4.2%
same,WEIGHT,day 15,839 g
same,Blood Urea Nitrogen,day 18,16.4 mg/dL
same,Creatine,day 18,0.5 mg/dL
same,Erythrocytes,day 18,4.39e+06 µL⁻¹
same,Glutamate Pyruvate Transaminase,day 18,15.3 U/L
same,Granulocytes (%),day 18,7.8%
same,Granulocytes (x 103/ul),day 18,1.7 x 103/ul
same,Hematocrit,day 18,35.7%
same,Hemoglobin,day 18,12.3 g/dL
same,Leucocytes,day 18,21900 µL⁻¹
same,Lymphocytes (%),day 18,82.9%
same,Lymphocytes (x 103/ul),day 18,18.2 x 103/ul
same,Mean Corpuscular Hemoglobin,day 18,28 pg
same,Mean Corpuscular Volume,day 18,81.2 fL
same,Mean Hemoglobin Content,day 18,34.4 g/dL
same,Mean Platelet Volume,day 18,12.4 fL
same,Monocytes (%),day 18,9.3%
same,Monocytes (x 103/ul),day 18,2 x 103/ul
same,Platelets,day 18,115000 µL⁻¹
same,Red Cell Distribution Width,day 18,16.7%
same,Reticulocytes,day 18,3.1%
same,WEIGHT,day 18,860 g
same,Erythrocytes,day 25,4.98e+06 µL⁻¹
same,Granulocytes (%),day 25,4.7%
same,Granulocytes (x 103/ul),day 25,0.8 x 103/ul
same,Hematocrit,day 25,40.8%
same,Hemoglobin,day 25,13.7 g/dL
same,Leucocytes,day 25,16900 µL⁻¹
same,Lymphocytes (%),day 25,90%
same,Lymphocytes (x 103/ul),day 25,15.2 x 103/ul
same,Mean Corpuscular Hemoglobin,day 25,27.4 pg
same,Mean Corpuscular Volume,day 25,81.8 fL
same,Mean Hemoglobin Content,day 25,33.6 g/dL
same,Mean Platelet Volume,day 25,11.8 fL
same,Monocytes (%),day 25,5.3%
same,Monocytes (x 103/ul),day 25,0.9 x 103/ul
same,Platelets,day 25,158000 µL⁻¹
same,Red Cell Distribution Width,day 25,17.4%
same,Reticulocytes,day 25,1.9%
same,WEIGHT,day 25,843 g
same,Blood Urea Nitrogen,day -10,15.35 mg/dL
same,Creatine,day -10,0.531 mg/dL
same,Erythrocytes,day -10,6.12e+06 µL⁻¹
same,Glutamate Pyruvate Transaminase,day -10,20.1 U/L
same,Granulocytes (%),day -10,6.5%
same,Granulocytes (x 103/ul),day -10,1.5 x 103/ul
same,Hematocrit,day -10,47.5%
same,Hemoglobin,day -10,17.3 g/dL
same,Leucocytes,day -10,23800 µL⁻¹
same,Lymphocytes (%),day -10,87.8%
same,Lymphocytes (x 103/ul),day -10,20.9 x 103/ul
same,Mean Corpuscular Hemoglobin,day -10,28.3 pg
same,Mean Corpuscular Volume,day -10,77.6 fL
same,Mean Hemoglobin Content,day -10,36.4 g/dL
same,Mean Platelet Volume,day -10,11 fL
same,Monocytes (%),day -10,5.7%
same,Monocytes (x 103/ul),day -10,1.4 x 103/ul
same,Platelets,day -10,266000 µL⁻¹
same,Red Cell Distribution Width,day -10,11%
same,Reticulocytes,day -10,2.1%
same,WEIGHT,day -10,824 g
